Data from publication PMC8408276, “Distinct neuropeptide-receptor modules regulate a sex-specific behavioral response to a pheromone” (Communications Biology, 2021).
“Also recorded” adds a separate entry of the source.

Tests used:
C. elegans [1] = conditions: males no longer attracted to higher concentrations; cited from earlier work
Description: Here, we investigate the neuronal mechanisms governing the behavioral attractive response of male C. elegans to ascr#8[28].

C. elegans [2] = assay: Drop avoidance assay; assay type: in vivo; conditions: Fig. 2c
Experimental: Because the defect in male response to ascr#8 was significant, and the SWAA was designed to detect attractive behaviors, we sought to determine if flp-3 loss-of-function (lof) animals were in fact avoiding ascr#8. Using a previously described drop avoidance assay[11],[41], we exposed forward moving animals to a drop of either vehicle control or ascr#8 and scored the avoidance index. […] The hermaphroditic behavior was unaffected by the loss of flp-3. (Fig. 2f). […] Assays were performed as described previously[4],[11],[41]. Fifty to sixty L4 worms were segregated by sex and stored at 20 °C for 5 h to overnight to be assayed as young adults. One to four hours prior to the assay, the lids of unseeded plates were tilted to allow any excess moisture to evaporate off the plates. At the time of the assay, 10 or more animals were transferred onto each of the dried, unseeded plates. A drop of either water or 1 µM ascr#8 was placed on the tail of forward moving animals, and their response was scored as either an avoidance response, or no response. The total number of avoidances was divided by the total number of drops to generate an avoidance index for that plate. This was repeated for at least 10 plates over at least three different days. Statistical comparisons within each strain were made by paired t-test against a significance level set at 0.05. […]

C. elegans [3] = assay: Single worm attraction assay (SWAA); assay type: in vivo
Experimental: We adapted the spot retention assay (Supplementary Fig. 1)[28],[38] to allow for better characterization of individual worm behavior and robust interrogation of attraction to small molecules. We first compared the attractiveness of 1 µM ascr#8 (Fig. 1a, inset) across multiple strains of C. elegans (the wild-type N2 strain, the high incidence of male him-5 and him-8 strains, and the chemosensory cilia defective osm-3), using our novel behavioral assay, the single worm attraction assay (SWAA) (Fig. 1a). In this assay, individual animals are placed directly into the spot of the ascaroside cue (A) while simultaneously removing any potential of male–male contact. A spatial control is included throughout the assay plate to allow us to investigate any innate differences in the number of visits to the well center, or the time spent therein, of which we have only found one strain to date with differences in male dwell time (Fig. 1a). Likewise, a vehicle control (V) is also included, to account of any changes in dwell time that are driven by the components of the vehicle. The outer forty wells of a 48-well suspension culture plate (Olympus Plastics, Cat #: 25-103) were seeded with 200 µL of standard NGM agar. To prepare the plates for the assay, they were acclimated to room temperature, at which point each well was seeded with 65 µL of OP50 E. coli. […] A single worm was placed in each of the 10 wells to be assayed, and the plate was transferred to a light source and camera and recorded for 15 m. […] Raw dwell time values were calculated by subtracting the time a worm exited the cue (center of the well in spatial controls), from the time it entered, as in the SRA[14]. This was determined per visit, and the average dwell time was calculated for each animal in the quadrant. Averages of the four-quadrant means were determined per plate, and a minimum of five plates were assayed per strain/condition. The mean raw dwell time across five plates was calculated and used for statistical analyses and graphical display. […] The number of visits per-worm was calculated, and the average visit count determined per quadrant, and per plate. The average visit count across five plates was calculated and used for statistical analyses and graphical display. An “attractive visit” was first determined for each plate as any visit greater than two standard deviations above the mean dwell time within the vehicle control for that plate. Any individual visit meeting this threshold was scored as a “1”, and any below was scored a “0”. The percent visits per-worm that were attractive was determined, and the average of each quadrant taken. […] The average percent of attractive visits across five plates was calculated and used for statistical analyses and graphical display. […]

[4] = tested on: flp-3 lof C. elegans males; assay: Peptide rescue-by-feeding, avoidance assay; assay type: in vivo; conditions: flp-3 lof males reared on bacteria expressing the peptide; 1 µM ascr#8 drop
Description: To identify which FLP-3 peptides are required for male avoidance of ascr#8, we adopted a peptide feeding approach, similar to RNAi feeding, as initially described previously[37],[59] (Fig. 6a). Using Gateway Cloning technology, we first inserted FLP-3 peptide coding sequences into a bacterial expression vector. As a control, we first tested the FLP-3 peptides that are still encoded in the ok3625 allele which are insufficient to drive the proper ascr#8 response in vivo: FLP-3-1 (SPLGTMRFamide) and FLP-3-4 (NPLGTMRFamide) (Supplementary Fig. 4). We then reared flp-3 lof animals on lawns of bacteria expressing the rescue constructs, and their progeny were assayed for avoidance (Fig. 6b–d, Supplementary Fig. 12).
DNA oligos containing the sequence for the peptides of interest were generated using Integrated DNA Technologies’ Ultramer synthesis service. The DNA sequence encoding the peptide sequence was flanked with sequences encoding EGL-3 cut sites (MRFGKR upstream, and KRK-STOP) downstream. These sites were then flanked with Gateway Cloning sites attB1 and attB2. Annealed oligos were then used to perform a BP reaction with pDONR p1-p2 to generate the pENTRY clones. […]
Assays were performed as described previously[4],[11],[41]. […] A drop of either water or 1 µM ascr#8 was placed on the tail of forward moving animals, and their response was scored as either an avoidance response, or no response. […]

NPR-10A = assay: In vitro GPCR activation assay (CHO-K1, aequorin, Gα16), NPR-10A; assay type: cell-based, C. elegans; conditions: CHO-K1 aequorin/Gα16 calcium response; Supplementary Fig. 10a
Experimental: This peptide contains an R-to-K mutation within the C-terminal motif, which may explain the lack of receptor activation.
The GPCR activation assay was performed as previously described[66],[74]. Briefly, npr-10 and frpr-16 cDNAs were cloned into the pcDNA3.1 TOPO expression vector (Thermo Fisher Scientific). A CHO-K1 cell line (PerkinElmer, ES-000-A24) stably expressing apo-aequorin targeted to the mitochondria (mtAEQ) and human Gα16 was transiently transfected with the receptor cDNA construct or the empty pcDNA3.1 vector using Lipofectamine LTX and Plus reagent (Thermo Fisher Scientific). Cells were shifted to 28 °C one day later and allowed to incubate for 24 h. On the day of the assay, cells were collected in BSA medium (DMEM/Ham’s F12 with 15 mM HEPES, without phenol red, 0.1% BSA) and loaded with […] coelenterazine h (Thermo Fisher Scientific) for 4 h at room temperature. The incubated cells were then added to synthetic peptides dissolved in DMEM/BSA, and luminescence was measured for 30 s at 496 nm using a Mithras LB940 (Berthold Technologies) or MicroBeta LumiJet luminometer (PerkinElmer). After 30 s of readout, 0.1% triton X-100 was added to lyse the cells, resulting in a maximal calcium response that was measured for 10 s. […]

NPR-10B = biological target: T1, NPR-10B (Caenorhabditis elegans, UniProt Q6EUU1); assay: In vitro GPCR activation assay (CHO-K1, aequorin, Gα16), NPR-10B; assay type: cell-based, C. elegans; conditions: CHO-K1 aequorin/Gα16 calcium response
T1 sequence (Q6EUU1 1-362): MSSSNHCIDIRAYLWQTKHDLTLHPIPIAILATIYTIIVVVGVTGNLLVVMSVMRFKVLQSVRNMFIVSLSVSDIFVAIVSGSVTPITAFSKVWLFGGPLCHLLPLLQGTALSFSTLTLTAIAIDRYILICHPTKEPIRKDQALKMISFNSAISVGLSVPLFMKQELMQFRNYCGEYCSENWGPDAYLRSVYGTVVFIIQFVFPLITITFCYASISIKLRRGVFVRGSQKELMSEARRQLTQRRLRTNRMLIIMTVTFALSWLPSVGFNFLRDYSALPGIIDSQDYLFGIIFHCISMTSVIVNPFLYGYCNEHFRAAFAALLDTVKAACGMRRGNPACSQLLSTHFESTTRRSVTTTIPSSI
Experimental: (§1) The GPCR activation assay was performed as previously described[66],[74]. Briefly, npr-10 and frpr-16 cDNAs were cloned into the pcDNA3.1 TOPO expression vector (Thermo Fisher Scientific). A CHO-K1 cell line (PerkinElmer, ES-000-A24) stably expressing apo-aequorin targeted to the mitochondria (mtAEQ) and human Gα16 was transiently transfected with the receptor cDNA construct or the empty pcDNA3.1 vector using Lipofectamine LTX and Plus reagent (Thermo Fisher Scientific). Cells were shifted to 28 °C one day later and allowed to incubate for 24 h. On the day of the assay, cells were collected in BSA medium (DMEM/Ham’s F12 with 15 mM HEPES, without phenol red, 0.1% BSA) and loaded with […] coelenterazine h (Thermo Fisher Scientific) for 4 h at room temperature. The incubated cells were then added to synthetic peptides dissolved in DMEM/BSA, and luminescence was measured for 30 s at 496 nm using a Mithras LB940 (Berthold Technologies) or MicroBeta LumiJet luminometer (PerkinElmer). After 30 s of readout, 0.1% triton X-100 was added to lyse the cells, resulting in a maximal calcium response that was measured for 10 s. After initial screening, concentration-response curves were constructed for HPLC-purified FLP-3 peptides by subjecting the transfected cells to each peptide in a concentration range from 1 pM to 10 µM. Cells transfected with an empty vector were used as a negative control. Assays were performed in triplicate on at least two independent days. Concentration-response curves were fitted using Prism v. 7 (nonlinear regression analysis with a sigmoidal concentration-response equation).

FRPR-16 = biological target: T2, FRPR-16 (Caenorhabditis elegans, UniProt Q21957); assay: In vitro GPCR activation assay (CHO-K1, aequorin, Gα16), FRPR-16; assay type: cell-based, C. elegans; conditions: CHO-K1 aequorin/Gα16 calcium response
T2 sequence (Q21957 1-340): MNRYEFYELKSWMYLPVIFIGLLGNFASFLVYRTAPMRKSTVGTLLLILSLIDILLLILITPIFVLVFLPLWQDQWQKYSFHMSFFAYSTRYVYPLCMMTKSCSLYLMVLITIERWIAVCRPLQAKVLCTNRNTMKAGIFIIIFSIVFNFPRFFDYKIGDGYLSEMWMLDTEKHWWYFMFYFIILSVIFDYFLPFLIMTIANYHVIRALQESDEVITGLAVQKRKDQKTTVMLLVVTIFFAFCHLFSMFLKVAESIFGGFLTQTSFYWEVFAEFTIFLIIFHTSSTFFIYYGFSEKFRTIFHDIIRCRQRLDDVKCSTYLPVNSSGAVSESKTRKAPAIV
Experimental: as §1

Row | Molecule | Concentration preferred by males (behavioral tuning curve) (C. elegans [1]) [µM] | Avoidance of the cue, in words (C. elegans [2]; flp-3 lof males) | Avoidance of the cue, in words (C. elegans [2]; wild-type males) | Attractive visits to the cue (C. elegans [3]; 1 µM ascr#8, males of wild-type strains, Supplementary Fig. 2b) | Time spent in ascr#8 compared to the vehicle, in words (C. elegans [3]; hermaphrodites from all strains) | Time spent within ascr#8 spot compared to the vehicle control, in words (C. elegans [3]; males, all wild-type and him strains, Fig. 1b, c) | Rescue of the ascr#8 avoidance phenotype, in words [4] | Activation of NPR-10A, in words (NPR-10A) | Activation of NPR-10 (NPR-10B), in words (NPR-10B) | Activation of FRPR-16, in words (FRPR-16)
1 | C[C@H](CC/C=C/C(=O)Nc1ccc(C(=O)O)cc1)O[C@@H]1O[C@@H](C)[C@H](O)C[C@H]1O [ascr#8] | ~1 | strongly avoided | did not avoid | 30–45% | significantly less time | significant increase | – | – | – | –
2 | STVDSSEPVIRDQ [FLP-3-10, non-RFamide peptide encoded by the flp-3 gene] | – | – | – | – | – | – | unable to rescue the avoidance phenotype | activated no receptors | activated no receptors; also recorded: failed to activate; also recorded: did not activate either receptor | activated no receptors; also recorded: did not activate either receptor
